# Values of other authors in patent US20190381003A1, “PHARMACEUTICAL COMPOSITION FOR TREATMENT OF INFLAMMATORY EAR DISEASES, METHOD FOR PRODUCING SAME AND METHOD FOR TREATMENT USING SAME COMPOSITION” (LIMITED LIABILITY COMPANY "KONSORTSIUM-PIK", priority 2017, published 2019).
# Columns and labels:
# [1] = following oral administration
smiles,measurement,setting,value
"Cc1c(C(C)C)c(=O)n(-c2ccccc2)n1C [Propyphenazone, 1,5-Dimethyl-2-phenyl-4-propan-2-yl-pyrazol-3-one]",time to maximal blood level,[1],≤ 30 min
"CCCNC(C)C(=O)Nc1c(C)csc1C(=O)OC (racemic) [Articaine, (RS)-Methyl 4-methyl-3-(2-propylaminopropanoylamino)thiophene-2-carboxylate]",persistence of anaesthesia,following drug administration,1 to 5 h
same,"analgesic effects, potency vs. lidocaine",vs. lidocaine,2 fold
same,"analgesic effects, potency vs. procaine",vs. procaine,6 fold
